Here are results for 10 molecules from publication PMC4532598 (European journal of pharmacology, 2015).

The target in data set [1] is T1, hKOP receptor (Homo sapiens, UniProt P41145). Description: cell-based. The following applies: for Emax: read-out: Internalization Emax (% receptor internalized). The class given is cell-based.
In data set [2] the target is T1, hKOP receptor.
For data set [3], the target named is T1, hKOP receptor. The experiment in a line: biochemical. The class given is biochemical. The following applies: for Emax: read-out: [35S]GTPγS binding Emax. A general note: GTPγS is a poorly hydrolysed GTP analogue; its binding reports G protein activation.
Data set [4] has as its target T2, mKOP receptor (Mus musculus, UniProt P33534). The experiment in a line: biochemical. To be noted: for Emax: read-out: [35S]GTPγS binding Emax. The class given is biochemical.
For data set [5], the target named is T2, mKOP receptor. Description: cell-based. The class given is cell-based.
The target of data set [6] is T2, mKOP receptor.
A further data set deals with mice. The following applies: mouse, in vivo; cited from earlier work.

Entries after “also recorded” stand apart in the source; their conditions may differ.

T2 sequence (P33534 whole entry): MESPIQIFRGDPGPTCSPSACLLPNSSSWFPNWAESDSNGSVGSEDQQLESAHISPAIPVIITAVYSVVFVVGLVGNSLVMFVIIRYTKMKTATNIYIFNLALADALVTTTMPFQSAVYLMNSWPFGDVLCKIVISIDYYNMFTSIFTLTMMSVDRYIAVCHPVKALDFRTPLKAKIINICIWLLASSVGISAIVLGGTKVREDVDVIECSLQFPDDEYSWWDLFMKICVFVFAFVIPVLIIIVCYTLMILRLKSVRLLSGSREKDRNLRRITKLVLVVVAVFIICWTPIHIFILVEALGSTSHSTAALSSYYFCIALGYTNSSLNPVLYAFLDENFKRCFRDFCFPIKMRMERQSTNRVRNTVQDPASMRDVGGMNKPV
T1 sequence (P41145 whole entry): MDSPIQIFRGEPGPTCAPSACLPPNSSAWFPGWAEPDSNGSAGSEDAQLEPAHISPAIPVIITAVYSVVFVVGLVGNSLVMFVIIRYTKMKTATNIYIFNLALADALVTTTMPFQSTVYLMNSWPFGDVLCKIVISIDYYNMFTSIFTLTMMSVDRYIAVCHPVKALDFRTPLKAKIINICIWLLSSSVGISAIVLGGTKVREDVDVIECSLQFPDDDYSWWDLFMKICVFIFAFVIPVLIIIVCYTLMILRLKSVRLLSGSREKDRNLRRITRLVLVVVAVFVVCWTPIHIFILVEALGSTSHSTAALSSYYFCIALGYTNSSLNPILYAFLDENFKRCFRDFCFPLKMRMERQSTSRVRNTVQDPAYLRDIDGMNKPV

On to `CCC12CCN(CC3(O)CC3)C(Cc3ccc(O)cc31)C2(C)C` (centres unmarked) [Bremazocine, bremazocine], for which, on hKOP receptor [1], the “log RAi−I” value worked out at 0.58 ± 0.16 and the Emax (as a rule, the size of the effect at its maximum, as opposed to the concentration needed) is 39.2 ± 1.8%. Further, on hKOP receptor [1] (Internalization EC50, mean), the EC50 (usually the concentration needed to bring the measured effect to its halfway point) was 1.4 nM. The same molecule gave an EC50 on hKOP receptor [1] (Internalization pEC50) of 1.35 nM. Also, on hKOP receptor [2], the “Bias factor (larger RAi divided by smaller)” value is given as “I ^c, 1.2”; the “Bias factor, direction of bias” value is given as “I ^c, 1.2”; the “Functional selectivity (bias) in words” value is “did not reach statistical significance”. Also, on hKOP receptor [3], the “log RAi−G” value amounted to 0.50 ± 0.11 and the Emax turned out to be 68.2 ± 2%. The same molecule gave an EC50 at hKOP receptor [3] ([35S]GTPγS binding EC50, mean) of 0.95 nM.

As to `Oc1ccc2c(c1)[C@@]13CCCC[C@@]1(O)[C@@H](C2)N(CC1CCC1)CC3` [Butorphanol, butorphanol], the “log RAi−I” value on hKOP receptor [1] was determined as 0.088 ± 0.18. Moreover, the EC50 on hKOP receptor [1] (Internalization pEC50) was 3.31 nM; on hKOP receptor [3] ([35S]GTPγS binding EC50, mean), 2.4 nM; at hKOP receptor [3] ([35S]GTPγS binding pEC50), 2.34 nM. Besides, the Emax on hKOP receptor [1] is 33.4 ± 3.2%; at hKOP receptor [3], 25.6 ± 1.8%. Moreover, at hKOP receptor [2], the “Bias factor, direction of bias” value is on record as “I ^c, 4.7”. The “Functional selectivity (bias) in words” value on hKOP receptor [2] is “did not reach statistical significance”.

As to `CC[C@]12CCN(CC3CC3)[C@H](C(=O)c3ccc(O)cc31)[C@@H]2C` [EKC, ethylketocyclazocine], the Emax at hKOP receptor [1] came to 44.8 ± 2.2%; on hKOP receptor [3] it was 80.6 ± 1.5%. Also, the “Bias factor, direction of bias” value on hKOP receptor [2] is “I, 3.1”. For the same molecule, the “log RAi−G” value on hKOP receptor [3] came to 0.015 ± 0.11.

Take `CN1CC[C@]23CCCC[C@H]2[C@H]1Cc1ccc(O)cc13` [Levorphanol, levorphanol]: at hKOP receptor [1], the “Internalization Emax (% receptor internalized)” value is given as “did not cause significant internalization; also recorded: lacked an effect on receptor internalization; also recorded: did not cause receptor internalization; also recorded: No internalization” and the “Internalization pEC50” value is “No internalization”. In addition, at mKOP receptor [4], the “Agonist efficacy in [35S]GTPγS binding, in words” value (shortened to “Agonist efficacy”) was “partial agonists” and the Emax turned out to be 62.3 ± 2.9%. Moreover, the EC50 at mKOP receptor [4] ([35S]GTPγS binding pEC50) is 30.2 nM. Also, at mKOP receptor [5], the EC50 was 0.83 nM and the “log RAi−I” value was 0.29 ± 0.35. Further, the Emax on mKOP receptor [5] (read-out: Internalization Emax (% receptor internalized)) was determined as 29.7 ± 1.7%. For the same molecule, at mKOP receptor [6], the “Bias factor, direction of bias” value is recorded as “I, 244”; the “Bias factor, direction, mKOP receptor (Table 5)” value is recorded as “I, 244”; the “Bias factor, mKOP receptor (Table 5)” value is “I, 244”; the “Functional selectivity (bias) in words” value is “internalization-biased”. Further, the “log RAi−G/RAi−I (log bias)” value on mKOP receptor [6] is given as −2.39 ± 0.37. Besides, at hKOP receptor [3], the “Agonist efficacy” value is on record as “weak partial agonist; also recorded: partial agonists” and the Emax was determined as 38.1 ± 4.8%. This molecule gave an EC50 on hKOP receptor [3] ([35S]GTPγS binding EC50, mean) of 72 nM.

Regarding `C=CCN1CC[C@]23c4c5ccc(O)c4O[C@H]2[C@@H](O)C=C[C@H]3[C@H]1C5` [Nalorphine, nalorphine], on hKOP receptor [1], the “Internalization Emax (% receptor internalized)” value was 23.7 ± 4.0% and the Emax is 23.9%. This molecule showed an EC50 on hKOP receptor [1] (Internalization pEC50) of 12 nM. On hKOP receptor [2], the “Bias factor (larger RAi divided by smaller)” value is on record as “I ^c, 2.5”; the “Bias factor, direction of bias” value is reported as “I ^c, 2.5”; the “Functional selectivity (bias) in words” value is reported as “did not reach statistical significance”. This molecule also gave an EC50 at hKOP receptor [3] ([35S]GTPγS binding pEC50) of 27.5 nM. Further, the Emax at hKOP receptor [3] came out at 51.4 ± 2.3%.

With `CC(C)=CCN1CCC2(C)c3cc(O)ccc3CC1C2C` (centres unmarked) [Pentazocine, pentazocine], the “log RAi−I” value on hKOP receptor [1] is −0.87 ± 0.22. In addition, the EC50 at hKOP receptor [1] (Internalization EC50, mean) is 92 nM; on hKOP receptor [1] (Internalization pEC50) it was 91.2 nM; at hKOP receptor [3] ([35S]GTPγS binding EC50, mean), 28 nM; at hKOP receptor [3] ([35S]GTPγS binding pEC50), 28.2 nM. Moreover, the Emax on hKOP receptor [1] was determined as 37 ± 13.3%; at mKOP receptor [4], 46.6 ± 2.7%; on hKOP receptor [3], 20.5 ± 6.9%. Also, the “Agonist efficacy” value on mKOP receptor [4] and on hKOP receptor [3] was “partial agonists” in each case. Moreover, the “Bias factor (larger RAi divided by smaller)” value at hKOP receptor [2] was “I ^c, 5.8”. For the same molecule, the “Bias factor, direction of bias” value at hKOP receptor [2] is listed as “I ^c, 5.8”. Further, the “Bias factor, direction, hKOP receptor (Table 5)” value on hKOP receptor [2] is “I ^c, 5.8”. The “Bias factor, hKOP receptor (Table 5)” value at hKOP receptor [2] is recorded as “I ^c, 5.8”. For the same molecule, the “Internalization Emax (% receptor internalized)” value on mKOP receptor [5] is “did not cause significant internalization; also recorded: lacked significant effects on receptor internalization; also recorded: did not cause receptor internalization; also recorded: not mKOP receptor; also recorded: No internalization”.

Turning to `COC(=O)[C@@H]1C[C@H](OC(C)=O)C(=O)[C@H]2[C@@]1(C)CC[C@H]1C(=O)O[C@H](c3ccoc3)C[C@]21C` [Salvinorin A, salvinorin A], the “Sedation and anhedonia-like actions” value with mice was “produced sedation and anhedonia-like actions”.

Consider `CN1c2ccccc2C(c2ccccc2F)=NCC1CNC(=O)c1ccsc1` (centres unmarked) [Tifluadom, tifluadom], for which the EC50 is 11.2 nM on hKOP receptor [1] (Internalization pEC50) and 333 nM at hKOP receptor [3] ([35S]GTPγS binding EC50, mean). Besides, the results for the Emax on hKOP receptor [1] and on hKOP receptor [3] were 29.6 ± 2.1% and 97.2 ± 11%, respectively. For the same molecule, the “Bias factor, direction of bias” value on hKOP receptor [2] is on record as “I, 11.8”.

In the case of `COC(=O)/C=C/C(=O)N[C@@H]1CC[C@@]2(O)[C@H]3Cc4ccc(O)c5c4[C@@]2(CCN3CC2CC2)[C@H]1O5` [β-FNA, β-funaltrexamine], at hKOP receptor [1], the “Internalization Emax (% receptor internalized)” value worked out at 32.8 ± 5.7% and the “Internalization pEC50” value is on record as 8.02 ± 0.47 (9.6). In addition, the EC50 at hKOP receptor [1] (read-out: Internalization EC50, mean) was 9.6 nM. At hKOP receptor [2], the “Bias factor (larger RAi divided by smaller)” value is recorded as “I ^c, 1.2”; the “Bias factor, direction of bias” value was “I ^c, 1.2”; the “Functional selectivity (bias) in words” value is recorded as “did not reach statistical significance”. For the same molecule, at hKOP receptor [3], the “[35S]GTPγS binding Emax” value stood at 63.7 ± 2.4% and the “[35S]GTPγS binding pEC50” value is listed as 8.08 ± 0.09 (8.4). Further, the EC50 on hKOP receptor [3] (read-out: [35S]GTPγS binding EC50, mean) was 8.4 nM.

Consider RB-64, for which the “Sedation and anhedonia-like actions” value in the data set with mice is given as “did not induce sedation or anhedonia-like effects”.
